Results as given in ChEMBL document CHEMBL1157898 (Bioorg Med Chem Lett, 2010).
Active and inactive are the calls of the source. The calls are words filed in the database; no cut-off is given here.

Tests used:
[1] = biological target: T1, Gamma-secretase (Homo sapiens) (UniProt Q96BI3+Q9NZ42+Q8WW43+P49768+Q92542+P49810); assay: Inhibition of gamma secretase mediated amyloid beta 38 generation in human H4 cells at 5 uM by LPECL assay; values are per cent of control
[2] = biological target: T1, Gamma-secretase (Homo sapiens); assay: Inhibition of gamma secretase mediated amyloid beta 42 generation in human H4 cells at 5 uM by LPECL assay; values are per cent of control
[3] = biological target: T1, Gamma-secretase (Homo sapiens); assay: Inhibition of gamma secretase mediated amyloid beta 40 generation in human H4 cells at 5 uM by LPECL assay; values are per cent of control
[4] = biological target: T1, Gamma-secretase (Homo sapiens); assay: Inhibition of gamma secretase in HEK293 cells assessed as amyloid beta secretion; assay type: cell-based
[5] = biological target: Dual specificity tyrosine-phosphorylation-regulated kinase 1A (Homo sapiens) (UniProt Q13627); assay: Inhibition of DYRK1A
[6] = biological target: T2, Serine/threonine-protein kinase Chk1 (Homo sapiens) (UniProt O14757); assay: Inhibition of CHK1
T2 sequence (whole entry): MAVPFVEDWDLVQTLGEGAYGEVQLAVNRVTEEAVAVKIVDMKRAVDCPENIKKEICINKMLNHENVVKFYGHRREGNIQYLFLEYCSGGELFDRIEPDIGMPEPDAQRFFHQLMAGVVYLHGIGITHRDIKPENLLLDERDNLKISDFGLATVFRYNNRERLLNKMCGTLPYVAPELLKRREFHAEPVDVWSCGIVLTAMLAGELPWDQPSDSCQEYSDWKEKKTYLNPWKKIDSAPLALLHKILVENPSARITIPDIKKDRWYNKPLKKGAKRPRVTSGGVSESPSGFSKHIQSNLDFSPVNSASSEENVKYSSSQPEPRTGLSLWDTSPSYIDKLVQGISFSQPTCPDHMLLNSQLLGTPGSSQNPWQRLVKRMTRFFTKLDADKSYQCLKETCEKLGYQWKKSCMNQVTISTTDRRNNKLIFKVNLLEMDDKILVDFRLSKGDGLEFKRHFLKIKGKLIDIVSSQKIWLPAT

[7] = biological target: Casein kinase I isoform delta (Homo sapiens) (UniProt P48730); assay: Inhibition of CK1delta
Sequence of Casein kinase I isoform delta (Homo sapiens) (P48730 whole entry, looked up, canonical isoform): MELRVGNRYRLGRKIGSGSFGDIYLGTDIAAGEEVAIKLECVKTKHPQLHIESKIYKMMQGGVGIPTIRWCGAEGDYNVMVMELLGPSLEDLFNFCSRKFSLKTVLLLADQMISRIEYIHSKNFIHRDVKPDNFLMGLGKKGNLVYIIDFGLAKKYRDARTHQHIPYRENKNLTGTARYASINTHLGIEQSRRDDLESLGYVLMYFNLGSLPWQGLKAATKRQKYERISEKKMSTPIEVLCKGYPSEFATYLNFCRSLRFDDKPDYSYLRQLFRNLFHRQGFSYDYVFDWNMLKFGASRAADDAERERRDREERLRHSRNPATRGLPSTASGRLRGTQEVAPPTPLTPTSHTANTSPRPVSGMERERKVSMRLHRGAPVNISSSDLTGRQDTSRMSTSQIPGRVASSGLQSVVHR

[8] = biological target: Fibroblast growth factor receptor 1 (Homo sapiens) (UniProt P11362); assay: Inhibition of FGFR1
Sequence of Fibroblast growth factor receptor 1 (Homo sapiens) (P11362 22-822 limits assumed): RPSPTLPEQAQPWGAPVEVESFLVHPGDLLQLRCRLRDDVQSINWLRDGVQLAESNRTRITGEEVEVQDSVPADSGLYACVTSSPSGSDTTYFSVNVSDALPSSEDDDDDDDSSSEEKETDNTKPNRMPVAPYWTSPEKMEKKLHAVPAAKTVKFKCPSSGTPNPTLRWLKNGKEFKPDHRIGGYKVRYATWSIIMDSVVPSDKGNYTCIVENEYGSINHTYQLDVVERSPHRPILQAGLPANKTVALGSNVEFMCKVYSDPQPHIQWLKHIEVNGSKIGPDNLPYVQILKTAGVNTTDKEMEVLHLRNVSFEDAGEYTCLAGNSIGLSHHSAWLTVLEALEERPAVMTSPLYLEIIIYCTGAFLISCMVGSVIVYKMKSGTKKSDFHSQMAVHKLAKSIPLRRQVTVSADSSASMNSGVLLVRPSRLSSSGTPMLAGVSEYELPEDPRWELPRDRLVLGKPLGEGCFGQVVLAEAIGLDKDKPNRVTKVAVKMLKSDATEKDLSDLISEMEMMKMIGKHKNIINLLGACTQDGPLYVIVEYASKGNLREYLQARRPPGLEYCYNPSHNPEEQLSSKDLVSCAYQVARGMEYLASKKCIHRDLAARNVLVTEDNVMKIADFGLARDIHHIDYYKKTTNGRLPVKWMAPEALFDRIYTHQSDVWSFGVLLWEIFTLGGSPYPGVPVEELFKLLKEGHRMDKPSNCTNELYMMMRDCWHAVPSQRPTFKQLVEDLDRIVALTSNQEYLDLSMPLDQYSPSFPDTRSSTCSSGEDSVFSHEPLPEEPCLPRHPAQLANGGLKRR

[9] = biological target: RAC-alpha serine/threonine-protein kinase (Homo sapiens) (UniProt P31749); assay: Inhibition of AKT1
Sequence of RAC-alpha serine/threonine-protein kinase (Homo sapiens) (P31749 whole entry): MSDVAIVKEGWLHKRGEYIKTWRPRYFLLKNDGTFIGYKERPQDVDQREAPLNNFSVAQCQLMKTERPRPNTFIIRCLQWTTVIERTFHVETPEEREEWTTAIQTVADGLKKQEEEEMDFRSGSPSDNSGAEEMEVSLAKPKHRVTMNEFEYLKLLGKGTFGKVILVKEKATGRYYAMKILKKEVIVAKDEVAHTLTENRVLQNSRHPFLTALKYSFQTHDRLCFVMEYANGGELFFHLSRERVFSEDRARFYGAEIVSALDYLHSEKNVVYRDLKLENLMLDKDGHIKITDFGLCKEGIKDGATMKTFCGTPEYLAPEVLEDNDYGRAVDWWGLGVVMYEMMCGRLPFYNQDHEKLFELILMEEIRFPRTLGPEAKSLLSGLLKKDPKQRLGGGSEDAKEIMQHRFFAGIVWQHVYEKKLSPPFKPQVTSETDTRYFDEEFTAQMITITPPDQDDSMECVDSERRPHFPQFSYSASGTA

[10] = biological target: Mitogen-activated protein kinase 1 (Homo sapiens) (UniProt P28482); assay: Inhibition of ERK2
Sequence of Mitogen-activated protein kinase 1 (Homo sapiens) (P28482 whole entry): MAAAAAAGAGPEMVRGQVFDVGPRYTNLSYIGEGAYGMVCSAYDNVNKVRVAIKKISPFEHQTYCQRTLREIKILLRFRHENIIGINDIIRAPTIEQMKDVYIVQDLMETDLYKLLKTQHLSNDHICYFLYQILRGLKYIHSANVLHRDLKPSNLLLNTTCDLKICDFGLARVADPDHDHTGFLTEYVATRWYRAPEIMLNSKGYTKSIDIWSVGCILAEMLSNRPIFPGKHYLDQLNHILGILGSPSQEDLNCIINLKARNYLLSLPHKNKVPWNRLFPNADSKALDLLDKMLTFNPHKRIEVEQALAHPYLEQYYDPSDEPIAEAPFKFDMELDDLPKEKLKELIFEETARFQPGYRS

[11] = biological target: T1, Gamma-secretase (Homo sapiens); assay: Inhibition of gamma secretase in HEK293 cells assessed as amyloid beta 38 secretion at 50 uM; assay type: cell-based
N2a [12] = assay: Inhibition of gamma secretase mediated amyloid beta 40 secretion in mouse N2a cells overexpressing CK1epsilon-271 within 5- to 50 uM after 3hr; assay type: cell-based
[13] = biological target: T1, Gamma-secretase (Homo sapiens); assay: Inhibition of gamma secretase in HEK293 cells assessed as amyloid beta 40 secretion at 50 uM; assay type: cell-based
[14] = biological target: T1, Gamma-secretase (Homo sapiens); assay: Inhibition of gamma secretase in HEK293 cells assessed as amyloid beta secretion at 250 uM; assay type: cell-based
[15] = biological target: T1, Gamma-secretase (Homo sapiens); assay: Inhibition of gamma secretase in HEK293 cells assessed as amyloid beta 42 secretion at 50 uM; assay type: cell-based
[16] = biological target: T1, Gamma-secretase (Homo sapiens); assay: Inhibition of gamma secretase in HEK293 cells assessed as amyloid beta secretion at 150 uM; assay type: cell-based
N2a [17] = assay: Inhibition of gamma secretase mediated amyloid beta 42 secretion in mouse N2a cells overexpressing CK1epsilon-271 within 5- to 50 uM after 3hr; assay type: cell-based

`O=C1Nc2ccc(Cl)cc2/C1=C\c1cc(F)cc(F)c1` was tested. Which residual activity [1] did it give?
Its residual activity is 81%.

What about the residual activity [2] of the same molecule?
Its residual activity is 112%.

What about the residual activity [3] of the same molecule?
The residual activity was 106%.

With `CCN(CC)CCNC(=O)c1c(C)[nH]c(/C=C2\C(=O)Nc3ccc(F)cc32)c1C` [SUNITINIB] as the molecule, how does the Activity [4] read?
The Activity was “inactive”.

Which inhibition [5] does the source give for `COc1ccc(/C=C2/C(=O)Nc3ccc(Cl)cc32)c(OC)c1OC` here?
The inhibition was “inactive”.

What about the inhibition [6] of the same molecule?
Its inhibition is “inactive”.

What about the inhibition [7] of the same molecule?
The inhibition was “inactive”.

And the inhibition [8]?
The inhibition was “inactive”.

And the inhibition [9]?
The inhibition was “inactive”.

What about the inhibition [10] of the same molecule?
Its inhibition is “inactive”.

Which inhibition ([5]; concentration not given here) does the source give for `COc1cc(OC)c(/C=C2/C(=O)Nc3ccc(Cl)cc32)c(OC)c1` here?
The inhibition was under 20%.

And the inhibition ([6]; concentration not given here)?
The inhibition was under 20%.

What about the inhibition ([7]; concentration not given here) of the same molecule?
The inhibition was under 20%.

What about the inhibition ([8]; concentration not given here) of the same molecule?
Its inhibition is under 20%.

What about the inhibition ([9]; concentration not given here) of the same molecule?
Its inhibition is under 20%.

And the inhibition ([10]; concentration not given here)?
Its inhibition is under 20%.

With `COc1cc(OC)c(C=C2C(=O)Nc3ccccc32)c(OC)c1` as the molecule, how does the inhibition [5] read?
Its inhibition is “inactive”.

What about the inhibition [11] of the same molecule?
Its inhibition is “inactive”.

What about the inhibition [6] of the same molecule?
The inhibition was “inactive”.

And the inhibition (N2a [12])?
Its inhibition is 68%.

And the inhibition [13]?
The inhibition was “inactive”.

And the inhibition [14]?
Its inhibition is “Active”.

What about the inhibition [15] of the same molecule?
The inhibition was “inactive”.

What about the inhibition [16] of the same molecule?
Its inhibition is “inactive”.

What about the inhibition (N2a [17]) of the same molecule?
The inhibition was 61%.

And the inhibition [8]?
The inhibition was “inactive”.

And the inhibition [9]?
Its inhibition is “inactive”.

And the inhibition [10]?
The inhibition was “inactive”.
